From PubChem BioAssay (NCI)
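The compound was tested at five concentrations on cells cultured in 96-well plates, with a 48-hour exposure period. At the GI50, growth is halved. TGI: total growth inhibition.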

How the values were obtained:
Assay in all cases: growth of human tumour cells (NCI), 48 h
[1] = test system: COLO 205 colon
[2] = test system: HOP-62 NSCLC
[3] = test system: HT29 colon
[4] = test system: MDA-MB-435
[5] = test system: NCI-H522 lung
[6] = test system: OVCAR-3 ovarian
[7] = test system: OVCAR-5 ovarian
[8] = test system: PC-3 prostate
[9] = test system: T-47D breast
[10] = test system: U251 CNS

`CN1C(=O)CNC(=O)[C@H](NC(=O)c2nc3ccccc3cc2O)CSSC[C@H]1C(=O)NCCc1nc2ccccc2cc1O` was tested, and the GI50 [1] was 2.94 µM, the TGI [1] was 12.7 µM and the GI50 [2] was 17.6 µM. The TGI [2] was 53.4 µM, the GI50 [3] was 3.12 µM and the TGI [3] was 16.4 µM. For the same compound, the GI50 [4] was 2.5 µM, the TGI [4] was 35.8 µM and the GI50 [5] was 2.38 µM. For the same compound, the TGI [5] was 7.46 µM, the GI50 [6] was 4.61 µM and the TGI [6] was 18.2 µM. It also gave a GI50 [7] of 24.9 µM, a TGI [7] of 62.1 µM and a GI50 [8] of 18.9 µM. For the same compound, the TGI [8] was greater than 70.4 µM, the GI50 [9] was 8.09 µM and the TGI [9] was 29.7 µM. It also gave a GI50 [10] of 16.5 µM and a TGI [10] of 43 µM.

With `O=C1/C(=C/c2ccccc2Cl)N=C(c2ccccc2)N1Cc1ccco1` the GI50 [1] was 51.4 µM, the TGI [1] was greater than 100 µM and the GI50 [2] was greater than 100 µM. For the same compound, the TGI [2] was greater than 100 µM, the GI50 [3] was 36.4 µM and the TGI [3] was greater than 100 µM. The GI50 [4] was 20.1 µM, the TGI [4] was 49.9 µM and the GI50 [5] was 26.2 µM. The TGI [5] was 66.7 µM, the GI50 [6] was 26.9 µM and the TGI [6] was greater than 100 µM. The GI50 [7] was greater than 100 µM, the TGI [7] was greater than 100 µM and the GI50 [8] was 39 µM. The TGI [8] was greater than 100 µM, the GI50 [9] was 53.2 µM and the TGI [9] was greater than 100 µM. For the same compound, the GI50 [10] was 57.8 µM and the TGI [10] was greater than 100 µM.

`ClCCN(CCCl)c1ccc(-n2cnc3c(Cl)ncnc32)cc1` gave a GI50 [1] of 5.74 µM, a TGI [1] of 19.1 µM and a GI50 [2] of 6.94 µM. The TGI [2] was 20.2 µM, the GI50 [3] was 2.07 µM and the TGI [3] was 4.15 µM. It also gave a GI50 [4] of 2.04 µM, a TGI [4] of 4.12 µM and a GI50 [5] of 3.84 µM. It also gave a TGI [5] of 14.9 µM, a GI50 [6] of 1.77 µM and a TGI [6] of 3.15 µM. For the same compound, the GI50 [7] was 17.9 µM, the TGI [7] was 35.9 µM and the GI50 [8] was 4.38 µM. It also gave a TGI [8] of 18.2 µM, a GI50 [9] of 3.28 µM and a TGI [9] of 12.9 µM. For the same compound, the GI50 [10] was 2.91 µM and the TGI [10] was 9.1 µM.

In the case of `CC(=O)OC1CCn2nnc(COC(=O)NC(C)C)c21` (stereo unspecified), the TGI [3] is reported as greater than 100 µM, the TGI [5] is reported as greater than 100 µM and the TGI [6] is reported as greater than 100 µM. The TGI [7] was greater than 100 µM and the TGI [10] was greater than 100 µM.

`CC(=O)/C=C/C1=C(c2cc3ccccc3s2)c2ccccc2CC1` gave a GI50 [1] of 29.9 µM, a TGI [1] greater than 100 µM and a GI50 [2] of 36.5 µM. It also gave a TGI [2] greater than 100 µM, a GI50 [3] of 21 µM and a TGI [3] greater than 100 µM. For the same compound, the GI50 [4] was 23 µM, the TGI [4] was 52.5 µM and the GI50 [5] was 26 µM. The TGI [5] was 72.2 µM, the GI50 [6] was 19.4 µM and the TGI [6] was 45 µM. The GI50 [7] was 27 µM, the TGI [7] was 67.9 µM and the GI50 [8] was 18.4 µM. It also gave a TGI [8] greater than 100 µM, a GI50 [9] of 8.58 µM and a TGI [9] greater than 100 µM. For the same compound, the GI50 [10] was 39.6 µM and the TGI [10] was greater than 100 µM.

Work on `COc1ccc(C(c2ccc(C(C)C)cc(=O)c2O)c2c(O)cc3oc(-c4ccccc4)cc(=O)c3c2O)cc1` (stereo unspecified) yielded a TGI [1] of 25.9 µM, a TGI [2] of 9.67 µM and a TGI [3] of 62.9 µM. It also gave a TGI [6] of 19 µM and a TGI [10] of 22.3 µM.

In the case of `O=c1c2ccc3cccc4c(=O)cc(c5ccccc15)-c2c34`, the TGI [1] is reported as greater than 100 µM, the TGI [2] is reported as greater than 100 µM and the TGI [3] is reported as greater than 100 µM. The TGI [5] was greater than 100 µM, the TGI [6] was greater than 100 µM and the TGI [7] was greater than 100 µM. It also gave a TGI [10] greater than 100 µM.

With `CCC(Sc1nnc2c3ccccc3n(CC)c2n1)C(=O)Nc1ccccc1OC` (stereo unspecified) the GI50 [1] was greater than 100 µM, the TGI [1] was greater than 100 µM and the GI50 [2] was 3.99 µM. For the same compound, the TGI [2] was greater than 71.9 µM, the GI50 [3] was greater than 100 µM and the TGI [3] was greater than 100 µM. For the same compound, the GI50 [4] was greater than 100 µM, the TGI [4] was greater than 100 µM and the GI50 [5] was greater than 100 µM. It also gave a TGI [5] greater than 100 µM, a GI50 [6] of 8.49 µM and a TGI [6] greater than 79.4 µM. For the same compound, the GI50 [7] was 1.94 µM, the TGI [7] was 11.7 µM and the GI50 [8] was 59.3 µM. It also gave a TGI [8] greater than 100 µM, a GI50 [9] of 7.74 µM and a TGI [9] greater than 100 µM. For the same compound, the GI50 [10] was greater than 100 µM and the TGI [10] was greater than 100 µM.

With `Cc1c(C(=O)/C=C/c2ccc(Cl)cc2)[n+](=O)c2ccccc2n1[O-]` the TGI [1] was 27.1 µM, the TGI [2] was 63.5 µM and the TGI [3] was 28.2 µM. It also gave a TGI [5] of 17 µM, a TGI [6] of 27.4 µM and a TGI [7] of 28.3 µM. The TGI [10] was 26.3 µM.

With `CCCCCCCCCCCC(=O)OCC1OC(n2cc(F)c(=O)[nH]c2=O)C(N)C(OC(=O)CCCCCCCCCCC)C1O` (stereo unspecified) the TGI [1] was greater than 100 µM, the TGI [2] was greater than 100 µM and the TGI [3] was greater than 100 µM. It also gave a TGI [5] greater than 100 µM, a TGI [6] greater than 100 µM and a TGI [10] greater than 100 µM.

In the case of `CCCNCc1nc2ccc(Br)cc2c(=O)n1CCC`, the TGI [1] is reported as 27.7 µM, the TGI [2] is reported as 36.9 µM and the TGI [3] is reported as 29.9 µM. It also gave a TGI [5] of 26.8 µM, a TGI [6] of 32.5 µM and a TGI [10] of 26.3 µM.

`Nc1cc(-c2ccccc2)ccc1O` was tested, and the GI50 [1] was greater than 100 µM, the TGI [1] was greater than 100 µM and the GI50 [2] was greater than 100 µM. The TGI [2] was greater than 100 µM, the GI50 [3] was greater than 100 µM and the TGI [3] was greater than 100 µM. It also gave a GI50 [4] greater than 100 µM, a TGI [4] greater than 100 µM and a GI50 [6] of 68.8 µM. The TGI [6] was greater than 100 µM, the GI50 [7] was greater than 100 µM and the TGI [7] was greater than 100 µM. The GI50 [8] was 21.6 µM, the TGI [8] was greater than 100 µM and the GI50 [9] was 55.3 µM. For the same compound, the TGI [9] was greater than 100 µM, the GI50 [10] was greater than 100 µM and the TGI [10] was greater than 100 µM.

`O=c1ccccc2cccc(O)c12` was tested, and the TGI [1] was greater than 100 µM, the TGI [2] was greater than 100 µM and the TGI [3] was greater than 100 µM. For the same compound, the TGI [6] was greater than 100 µM and the TGI [10] was greater than 100 µM.

With `COc1ccc2[nH]cc(-c3nc(-c4cn(C)c5ccncc45)cs3)c2c1` the GI50 [2] was 1.92 µM, the TGI [2] was 3.63 µM and the GI50 [3] was 1.53 µM. The TGI [3] was 3.33 µM, the GI50 [4] was 1.71 µM and the TGI [4] was 3.22 µM. The GI50 [5] was 1.74 µM, the TGI [5] was 3.52 µM and the GI50 [6] was 1.85 µM. The TGI [6] was 3.41 µM, the GI50 [7] was 2 µM and the TGI [7] was 3.6 µM. The GI50 [8] was 1.98 µM, the TGI [8] was 4.13 µM and the GI50 [10] was 1.91 µM. It also gave a TGI [10] of 3.42 µM.

Work on `CCC[CH2][Sn]([CH2]CCC)([O]C(=O)c1cccc(F)c1)[O]C(=O)c1cccc(F)c1` yielded a GI50 [1] of 0.852 µM, a TGI [1] of 2.18 µM and a GI50 [2] of 1.91 µM. It also gave a TGI [2] of 3.38 µM, a GI50 [3] of 1.73 µM and a TGI [3] of 3.38 µM. For the same compound, the GI50 [5] was 0.246 µM, the TGI [5] was 0.91 µM and the GI50 [6] was 0.956 µM. The TGI [6] was 2.17 µM, the GI50 [7] was 2.67 µM and the TGI [7] was 4.24 µM. For the same compound, the GI50 [10] was 1.05 µM and the TGI [10] was 2.26 µM.

`COC(=O)c1ccccc1NC(=O)/C(=N\NC(C)(C)C)C(C#N)c1nc(-c2ccc([N+](=O)[O-])cc2)cs1` (stereo unspecified) showed a TGI [1] greater than 100 µM, a TGI [3] greater than 100 µM and a TGI [4] greater than 100 µM. It also gave a TGI [6] greater than 100 µM, a TGI [7] greater than 100 µM and a TGI [8] greater than 100 µM. For the same compound, the TGI [9] was greater than 100 µM and the TGI [10] was greater than 100 µM.

`Cc1ccc(NC(=O)/C(CC(=O)c2c[n+](=O)c3ccccc3n2O)=N\NC(=O)C[n+]2ccccc2)cc1` was tested, and the TGI [1] was greater than 100 µM, the TGI [2] was greater than 100 µM and the TGI [3] was greater than 100 µM. The TGI [5] was greater than 100 µM, the TGI [6] was greater than 100 µM and the TGI [7] was greater than 100 µM. It also gave a TGI [10] greater than 100 µM.

With `CC(=O)OC12c3ccccc3C1CCCCCC21OCCCO1` (stereo unspecified) the TGI [1] was greater than 100 µM, the TGI [2] was greater than 100 µM and the TGI [3] was greater than 100 µM. For the same compound, the TGI [5] was greater than 100 µM, the TGI [6] was greater than 100 µM and the TGI [7] was greater than 100 µM. For the same compound, the TGI [10] was greater than 100 µM.
